Data on one compound can be found in patent US10000577B2, “Treatment of otitis media” (Research Institute at Nationwide Children's Hospital, priority 2015, dated 2018).

For this assay, the system named is NHBE cells. The assay is described as follows: Inhibition of Arp2/3 - normal human bronchial epithelial cell (NHBE) infection model with GFP-expressing NTHI. The following applies: 200 μM CK-636, 24 or 48 hours. The class given is cell-based. The method, then: Inhibition of Arp2/3—Normal human bronchial epithelial cell (NHBE) infection model: NHBE cells (Lonza, Walkersville, Md.) were seeded into 24-well plates containing sterile coverslips and grown in Bronchial Epithelial Cell Growth Medium (BEGM; Lonza, Walkersville, Md.) at 37° C. in a 5% CO2 atmosphere to near confluency. […] The next morning the colonies were re-suspended in brain heart infusion broth supplemented with 2 μg/ml heme and 2 μg/ml β-NAD (sBHI) and grown at 37° C. with shaking at 180 rpm until the cells were in mid-log phase (˜5 generations). Prior to infection, the BEGM was removed from the NHBE cells and replaced with BEGM that contained either 200 μM CK-636 (Sigma-Aldrich, St. Louis, Mo.), an inhibitor of Arp2/3 function, or 0.2% DMSO, the vehicle for CK-636. Strain 86-028NP(pGM1.1) was then added to the NHBE cells at a multiplicity of infection of 50 bacteria to one NHBE cell and incubated at 37° C. in a 5% CO2 atmosphere for one hour. The NHBE cells were then washed twice with DPBS before being placed back in BEGM that contained either 200 μM CK-636 or 0.2% DMSO. Cells were incubated at 37° C. in a 5% CO2 atmosphere for 24 or 48 hours. At each time point, cells were stained with WGA-Alexa Fluor 594, fixed in 4% paraformaldehyde (Electron Microscopy Sciences, Hatfield, Pa.) in DPBS, permeabilized with 0.1% Triton X-100 then stained with phalloidin-Alexa Fluor 350. […]

Molecules are shown by their SMILES. “Also recorded” adds a separate entry of the source.

Regarding `Cc1[nH]c2ccccc2c1CCNC(=O)c1cccs1` [CK-636], under “NTHI strain 86-028NP(pGM1.1), MOI 50, versus 0.2% DMSO vehicle”, the “NTHI invasion / bacterial uptake into epithelial cells (fluorescent microscopy)” value is “reduced NTHI invasion into epithelial cells; also recorded: increase in the number of extracellular bacteria indicating that bacterial uptake was reduced”. The “actin structure of NHBE cells (phalloidin staining, fluorescent microscopy)” value (NTHI-infected NHBE cells) was “gross morphological changes in actin structure”.
